# Experimental data from patent US20210163451A1, “METHODS AND COMPOSITIONS FOR SUBSTITUTED 2,5-DIKETOPIPERAZINE ANALOGS” (University of Florida Research Foundation, Inc., priority 2018, published 2021).
# Marks after values point to notes of the source that are not given here.
# Assays:
# [1] = test system: TxtB; assay: TxtB substrate scope in TxtA/TxtB reactions; assay type: biochemical, S. scabies 87.22; design: key to TxtB substrate: +++++: Five ‘+’ represents the strong reactivity; ++++: The number of ‘+’ represents the reactivities of the enzymes to the substrate; +++: The number of ‘+’ represents the reactivities of the enzymes to the substrate; ++: The number of ‘+’ represents the reactivities of the enzymes to the substrate; +: one represent very weak reactivities
# Procedure: Using the above strategy, it was determined that TxtB accepted only I-Trp among all 20 natural amino acids in the reaction (FIG. 2B, Table 1). When incubating with 15 I-Trp analogs with various substituents at α-position or C4, C5, C6 and C7 of I-Trp indole (Table 1), TxtB was able to use 4-F, 4-Me, 5-F, and 6-F-tryptophan as substrates in the DKP synthesis (Table 1). […] Indeed, the Micklefield group recently produced several thaxtomin analogs with C4-H, F, Cl, Br, or Me when expressing txtA/B in S. albus. The advanced understanding of substrate scopes of TxtA/B led to enzymatic creation of a library of 30 DKPs with 5 I-Trp analogs and 6 I-Phe analogs (FIG. 3C). The production of all DKPs were confirmed in HPLC analysis and verified in high resolution LC-MS analysis (Table 2).
# (§1) TxtA/B reaction: 100 mM Tris-Cl (PH=8.0), 0.5 mM Nitro-L-tryptophan or L-tryptophan, 0.55 mM L-Phenylalanine, 3.2 μM txtA, 14.5 μM txtB, 2.5 mM ATP and 2 mM SAM in 100 μL reaction. 21° C. shaken with 400 rpm for 20 hours.
# To probe the basis of chemical diversity of Thx DKP scaffold, next characterized was the substrate scopes of TxtA and TxtB. […] Bulkier aryl substituents decreased enzyme activity. […] From the modelled structure of TxtA adenylation (A) domain (FIG. 23), it was identified that Trp225 likely controls the binding of bulky L-Phe analogues. Indeed, the TxtA W225S mutant [Kries, H. et al. Angew. Chem. Int. Ed. Engl. […] We confirmed the product as p-azido-Thx D by HRMS, MS/MS, 1D and 2D NMR analysis (FIGS. 24-25). The substrate preference of TxtB was then assessed. […] Additionally, TxtB utilized 4F-L-, 5F-L-, 4Me-D,L- and 6F-D,L-Trp out of 15 L-Trp analogues carrying various substituents (Table 7) as substrates to synthesize desnitro dimethylated DKP analogues (FIG. 22). […] The tolerance to small modifications on L-Trp indole by TxtB agreed with a recent in vivo study by the Micklefield group [Winn, M. et al. Angew. Chem. Int. Ed. Engl. 2018 57:6830-6833]. […] Chem. Biol. 2018 14: 428-430].
# (§2) The TxtA/B reaction solutions (100 μl) typically contained 100 mM Tris-Cl, pH 9.0, 0.5 mM amino acid substrates, 10 mM MgCl2, 2.5 mM ATP and 2 mM SAM. The reactions were initiated by adding 1.2 μM TxtA and 1.3 μM TxtB (final concentration) and incubated at 21° C. with shaking at 400 rpm. After 30 h, the reactions were terminated by mixing with 200 μl of methanol. Quenched solutions were centrifuged at 4° C., 16,000×g for 15 min and clear supernatants were collected and subjected to HPLC and LCMS analysis as detailed below. All experiments were repeated independently at least twice. The reaction solutions of TB14 and TxtA and TxtB were the same as those of TxtA and TxtB except the inclusion of 1.5 mM NAPDH, 0.75 mM NOC-5 and 11.1 μM TB14. The reactions were run for 30 h and the products were analyzed and quantitated as described above.
# [2] = test system: TxtA; assay: TxtA substrate scope in TxtA/TxtB reactions; assay type: biochemical, S. scabies 87.22
# Procedure: To explore whether TxtA/B are versatile to generate a library of thaxtomin D analogs, enzymes' substrate tolerance was then examined in the reactions. […] Subsequently, the substrate scope of TxtA with 17 I-Phe analogs was assessed with various substituents at α-position or C2, C3, and C4 of the aryl group (Table 1).
# as §1
# (§3) TB14 and txtA/B coupling reaction: 100 mM Tris-Cl (PH=8.0), 0.5 mM L-tryptophan, 0.55 mM L-Phenylalanine, 1.5 mM NAPDH, 0.75 mM NOC-5, 3.2 μM txtA, 14.5 μM txtB, 2.5 mM ATP, 2 mM SAM and 11.1 μM TB14 in 100 μL reaction. Opened to air, 21° C. shaken with 400 rpm for 30 hours.
# (§4) To probe the basis of chemical diversity of Thx DKP scaffold, next characterized was the substrate scopes of TxtA and TxtB. […] Chem. Int. Ed. Engl. […] The substrate preference of TxtB was then assessed. […] Chem. Int. Ed. Engl. 2018 57:6830-6833]. […] Chem. Biol. 2018 14: 428-430].
# as §2
# [3] = test system: TxtA-W225S; assay: TxtA-W225S mutant substrate scope in TxtA/TxtB reactions; assay type: biochemical, S. scabies 87.22; details: for substrate preference of TxtAW225S mutant: Example 1; for TxtA-W225S substrate: Table 1, Example 1; for TxtAW225S substrate: Table 7, Example 2
# Procedure: The nitro group of thaxtomins is essential for herbicidal activity, and is installed by TxtE. […] NADPH, NOC-5 as NO donor and SAM were included in the reaction. […] To further expand the substrate scope of TxtA, Trp225 was mutated into Ser in TxtA.
# as §1, §3, §4, §2
# [4] = test system: radish seedlings; assay: Herbicidal activity in radish seedling assay; assay type: in vivo; details: total seedling length after 7 days on agar, 0 to 2 μM, mean±SD (n=4)
# Procedure: Established protocols were followed to quantitate thaxtomin herbicidal activity in radish seedling assay (Jiang, G. et al. Appl Environ Microbiol 2018 84:e00164-18). In brief, serial concentrations (0 to 2 μM) of thaxtomins in DMSO were added into 20 mL of 1.5% warm agar solution with gentle agitation to prepare agar plates. DMSO was included as the negative control. Radish seeds (Burpee) were surface disinfested, pregerminated and selected when the radicle was […] and just emerged from the seed coat. Six radish seedlings were equally located on the surface of each plate with root ends pointed to the same direction. Agar plates were covered, sealed with Parafilm. Seedlings in agar plates grew at room temperature under 14-16 h fluorescent light per day for 7 days, and total seedling lengths were then recorded. The longest and the shorted seedlings would be excluded from the data analysis. Percent inhibition relative to the mean growth response in negative control was then calculated. Dose-response curves were fit to a four-parameter logistic model, and I50 values were determined from these curves.
# [5] = test system: TB14, TCB14, TxtA and TxtB; assay: Conversion to thaxtomin A analogues in the reactions of TB14, TCB14, TxtA and TxtB; assay type: biochemical; details: thaxtomin A analogue product from the listed L-Phe and L-Trp analogues
# [6] = Example 1, TxtA/B reaction with 4-NO2-L-Trp as TxtB substrate
# [7] = Example 2, reaction of TB14, TxtA and TxtB
compound,measurement,setting,value
"Cc1cccc2[nH]cc(CC(N)C(=O)O)c12 (racemic) [4Me-D,L-Tryptophan]",TxtB substrate,"[1]; Table 1, Example 1",++
same,TxtB substrate,"[1]; Table 7, Example 2",+++
"NC(Cc1c[nH]c2cc(F)ccc12)C(=O)O (racemic) [6F-Tryptophan, 6F-D,L-tryptophan]",TxtB substrate,"[1]; Table 1, Example 1",++
same,TxtB substrate,"[1]; Table 7, Example 2",+
N[C@@H](Cc1ccccc1Br)C(=O)O [2Br-L-phenylalanine],TxtA substrate,"[2]; Table 1, Example 1",+
same,TxtA substrate,"[2]; Table 7, Example 2",+
N[C@@H](Cc1ccccc1F)C(=O)O [2F-L-phenylalanine],"relative activity of TxtA toward substrate, relative to L-Phe",[2]; [6],same level of activity
same,"relative activity of TxtA toward substrate, relative to L-Phe",[2]; [7],~73%
same,TxtA substrate,"[2]; Table 1, Example 1",++++
same,TxtA substrate,"[2]; Table 7, Example 2",++++
Cc1ccccc1C[C@H](N)C(=O)O [2Me-L-phenylalanine],TxtA substrate,"[2]; Table 1, Example 1",+++
same,TxtA substrate,"[2]; Table 7, Example 2",++
N[C@@H](Cc1cccc(Br)c1)C(=O)O [3Br-L-phenylalanine],TxtA substrate,"[2]; Table 1, Example 1",+
same,TxtA substrate,"[2]; Table 7, Example 2",+
N[C@@H](Cc1cccc(Cl)c1)C(=O)O [3Cl-L-phenylalanine],TxtA substrate,"[2]; Table 1, Example 1",++
same,TxtA substrate,"[2]; Table 7, Example 2",+
N[C@@H](Cc1cccc(F)c1)C(=O)O [3F-L-phenylalanine],"relative activity of TxtA toward substrate, relative to L-Phe",[2]; [6],same level of activity
same,"relative activity of TxtA toward substrate, relative to L-Phe",[2]; [7],equally active
same,TxtA substrate,"[2]; Table 1, Example 1",+++++
same,TxtA substrate,"[2]; Table 7, Example 2",+++++
Cc1cccc(C[C@H](N)C(=O)O)c1 [3Me-L-phenylalanine],"relative activity of TxtA toward substrate, relative to L-Phe",[2]; [6],about 12%
same,"relative activity of TxtA toward substrate, relative to L-Phe",[2]; [7],about 27%
same,TxtA substrate,"[2]; Table 1, Example 1",++
same,TxtA substrate,"[2]; Table 7, Example 2",++
[N-]=[N+]=Nc1ccc(C[C@H](N)C(=O)O)cc1 [4-Azidophenylalanine],"relative activity of TxtA toward substrate, relative to L-Phe",[2]; [7],did not accept
same,substrate preference of TxtAW225S mutant,[3],strong preference
same,substrate preference of TxtA W225S mutant,"[3]; Example 2, reaction with TB14, TxtA and TxtB",strong preference over L-Phe
same,TxtA-W225S substrate,[3],++
same,TxtAW225S substrate,[3],++
N[C@@H](Cc1c[nH]c2cccc([N+](=O)[O-])c12)C(=O)O [4-nitro-L-Tryptophan],TxtB substrate,"[1]; Table 1, Example 1",+++++
same,TxtB substrate,"[1]; Table 7, Example 2",+++++
N[C@@H](Cc1ccc(Br)cc1)C(=O)O [4Br-L-phenylalanine],TxtA substrate,"[2]; Table 1, Example 1",+
same,TxtA substrate,"[2]; Table 7, Example 2",+
N[C@@H](Cc1ccc(Cl)cc1)C(=O)O [4Cl-L-phenylalanine],TxtA substrate,"[2]; Table 1, Example 1",++
same,TxtA substrate,"[2]; Table 7, Example 2",+
"N[C@@H](Cc1c[nH]c2cccc(F)c12)C(=O)O [4F--Tryptophan, 4F-L-tryptophan]",TxtB substrate,"[1]; Table 1, Example 1",+
same,TxtB substrate,"[1]; Table 7, Example 2",+
N[C@@H](Cc1ccc(F)cc1)C(=O)O [4F-L-phenylalanine],"relative activity of TxtA toward substrate, relative to L-Phe",[2]; [6],~72%
same,TxtA substrate,"[2]; Table 1, Example 1",+++
same,TxtA substrate,"[2]; Table 7, Example 2",++
Cc1ccc(C[C@H](N)C(=O)O)cc1 [4Me-L-phenylalanine],TxtA substrate,"[2]; Table 1, Example 1",+++
same,TxtA substrate,"[2]; Table 7, Example 2",+
"Cc1ccc(C[C@@]2(O)C(=O)N(C)[C@@H](Cc3c[nH]c4cccc([N+](=O)[O-])c34)C(=O)N2C)cc1O [4′Me-Thx A, 4′Me-thaxtomin A]",IC50,"[4]; Raphanus sativus, 168 h",410 ± 10 nM
"Cc1ccc(C[C@H]2C(=O)N(C)[C@@H](Cc3c[nH]c4cccc([N+](=O)[O-])c34)C(=O)N2C)cc1 [4′Me-Thx D, 4′Me-thaxtomin D]",IC50,"[4]; Raphanus sativus, 168 h",480 ± 40 nM
"N[C@@H](Cc1c[nH]c2ccc(F)cc12)C(=O)O [5F-Tryptophan, 5F-L-tryptophan]",TxtB substrate,"[1]; Table 1, Example 1",++
same,TxtB substrate,"[1]; Table 7, Example 2",++
N[C@@H](Cc1ccccc1)C(=O)O [L-phenylalanine],TxtA substrate,"[2]; Table 1, Example 1",+++++^a
same,TxtA substrate,"[2]; Table 7, Example 2",+++++
same,TxtA-W225S substrate,[3],+
same,TxtAW225S substrate,[3],+
N[C@@H](Cc1c[nH]c2ccccc12)C(=O)O [L-tryptophan],"TxtB activity, times less active than 4-NO2-L-Trp","[1]; Example 2, reaction without TB14",12 times
same,TxtB substrate,"[1]; Table 1, Example 1",+
same,TxtB substrate,"[1]; Table 7, Example 2",+
N[C@@H](Cc1ccc(O)cc1)C(=O)O [L-tyrosine],substrate preference of TxtAW225S mutant,[3],lower activity
same,TxtA-W225S substrate,[3],++
CN1C(=O)[C@H](Cc2c[nH]c3cccc([N+](=O)[O-])c23)N(C)C(=O)[C@@H]1Cc1ccc(N=[N+]=[N-])cc1 [compound 42],Conversion rate %,[3]; catalyzed by TxtB and TxtAW225S (with TB14),20.90%
Cc1ccc(C[C@@]2(O)C(=O)N(C)[C@@H](Cc3c[nH]c4cccc([N+](=O)[O-])c34)C(=O)N2C)cc1O [compound 118],Conversion rate %,[5],3.98%
Cc1cccc2[nH]cc(CC3C(=O)N(C)C(Cc4ccccc4)C(=O)N3C)c12 (centres unmarked) [desnitro-4Me-Thx D],IC50,[4],1980 ± 20 nM
"CN1C(=O)[C@H](Cc2c[nH]c3cccc([N+](=O)[O-])c23)N(C)C(=O)[C@@H]1Cc1ccc(N=[N+]=[N-])cc1 [p-N3-Thx D, p-N3-thaxtomin D]",IC50,"[4]; Raphanus sativus, 168 h",1290 ± 210 nM
